What all share (assay type): cell-based, hepatitis C virus
In assay [1] the test system is HCV JFH1 strain. The note with it: for Promotion ratio (HCV particle production-promoting effect): added after HCV adsorption, 46 h culture, Huh7-it cells, moi=0.1, control (DMSO) = 1.0. The procedure:
In this example, the purified lovastatin solution “B15.4.1” (FIG. 1) of Example 1 was used as the “HCV particle formation promoter.” A lovastatin solution prepared by adding a culture medium to the HCV particle formation promoter to adjust each lovastatin concentration at the time of virus inoculation and at the time of culture to from 1.25 to 20 μg/ml was used in the following.
In this example, Huh7-it cells, a highly HCV-permissive cell line derived from Huh7 cells, were used as culture cells. The medium used was Dulbecco's modified Eagle's medium supplemented with 10% fetal calf serum, non-essential amino acids, penicillin, and streptomycin, and the cells were cultured using a 48-well culture plate.
A HCV stock solution to be used to promote formation of HCV particles was prepared by the following method. The HCV strain used was JFH1 strain (genome sequence: GenBank accession number AB047639). RNA having the same sequence as that of the full genome of the HCV JFH1 strain was introduced (transfected) into Huh7-it cells by an electroporation method (van den Hoff M J et al., Nucleic Acids Res., 20:2902, 1992), and the culture supernatant 72 hours after the introduction was collected. The collected culture supernatant was passed through a 0.45-μm filter (Millipore) to remove contaminants, and then added to other Huh7-it cells. An infectivity titer was calculated by measuring the number of HCV-infected cells after 72 hours by a focus method, and a solution adjusted to have an infectivity titer of 5.4×10^4 infectious units/ml was used as the HCV stock solution. The infectivity titer to prepare the HCV stock solution was calculated by an immunostaining method. An anti-HCV-core (clone CP14) monoclonal antibody was used as a primary antibody, and a HRP-labeled goat anti-mouse antibody was used as a labeling antibody. Konica Immunostain HRP-1000 (Konica Minolta) was added, and the number of virus antigen-positive cell populations stained in blue (immunofocus; also called focus) was measured under a microscope. Thus, the infectivity titer was calculated.
A mixture of the HCV stock solution (5.4×10^4 infectious units/ml) prepared in the above-mentioned section 3) and the HCV particle formation promoter was inoculated into culture cells, and the virus was adsorbed to the cells at 37° C. for 2 hours. Then, the virus liquid was removed, and the cells were washed three times with a culture medium. After that, in the same manner as described above, the cells were cultured for […] with the addition of the HCV particle formation promoter (lovastatin concentration: 1.25 to 20 μg/ml). The virus was inoculated into the culture cells so that the multiplicity of infection (moi) was 0.1.
To confirm a virus-producing ability, the culture medium of the infected cells was centrifuged at 10,000 rpm for 3 minutes, and the centrifugation supernatant was used as a sample liquid. The sample liquid was inoculated into non-HCV-infected Huh7-it cells. […] The number of staining-positive cells was measured, and the HCV infectivity titer was measured.
In this example, the crude lovastatin solution “B15” (FIG. 1) of Example 1 was used as the “HCV particle formation promoter.” A lovastatin solution prepared by adding a culture medium to the HCV particle formation promoter to adjust each lovastatin concentration at the time of virus inoculation and at the time of culture to from 1 to 50 μg/ml was used in the following.
In this example, HCV was inoculated into culture cells to achieve moi=0.1 as in Example 2, and the HCV particle formation promoter was added at the following timings i) to iii).
A mixture of HCV and the HCV particle formation promoter was inoculated into culture cells, and the virus was adsorbed to the cells at 37° C. for 2 hours. Then, the virus liquid was removed, and the cells were washed three times with a culture medium. After that, the cells were cultured for 46 hours with the addition of the HCV particle formation promoter containing lovastatin. […]

Assay [2] concerns HCV JFH1 strain. Conditions: added after HCV adsorption, 46 h culture, Huh7-it cells, moi=0.1, control (DMSO) = 1.0.
In a further assay the test system is HCV RNA. Briefly: Intracellular HCV RNA copy number by quantitative RT-PCR in Huh7-it cells. The note with it: Example 6; 20 μg/ml lovastatin; days 1, 2, 3 and 4 after infection; versus DMSO control (FIG. 6). The procedure: In this example, culture cells were prepared in the same manner as in Example 2 to confirm the influence on the HCV RNA copy number in the culture cells on days 1, 2, 3, and 4 after HCV infection in adding the HCV particle formation promoter to Huh7-it cells over a period of from during HCV adsorption to 48 hours after HCV infection. In this example, the purified lovastatin solution “B15.4.1” (FIG. 1) of Example 1 was used as the HCV particle formation promoter. A lovastatin solution prepared by adding a culture medium to the HCV particle formation promoter to adjust each lovastatin concentration at the time of virus inoculation and at the time of culture to 20 μg/ml was used in the following. A system containing DMSO in place of the HCV particle formation promoter was used as a control.
A sample to measure an intracellular HCV RNA copy was prepared in the same manner as in Example 5. Total RNA was extracted from infected cells using Trizol®/Trizol®-LS (Invitrogen). cDNA was synthesized from the total RNA by performing a reverse transcription reaction at 37° C. for 15 minutes and an enzyme inactivation reaction at 98° C. for 5 minutes through the use of a ReverTra Ace® qPCR-Kit (Toyobo). The HCV RNA copy number was measured by a quantitative RT-PCR method using a LightCycler® 480 real-time PCR system. […]

The next assay deals with HCV protein (antigen). The experiment in a line: Intracellular HCV protein (antigen) synthesis by immunostaining in Huh7-it cells. Conditions: Example 6, 20 μg/ml lovastatin, versus DMSO control (FIG. 7).
For assay [3], the system named is HCV JFH1 strain. The experiment in a line: Intracellular HCV infectivity titer in Huh7-it cells (freeze-thawing method). Conditions: Example 5; 20 μg/ml lovastatin, from adsorption to 48 h after infection; versus DMSO control (FIG. 5). As to the method: In this example, culture cells were prepared in the same manner as in Example 2 to confirm the influence on the HCV infectivity titer inside and outside Huh7-it cells in adding the HCV particle formation promoter to the cells over a period of from during HCV adsorption to 48 hours after HCV infection. In this example, the purified lovastatin solution “B15.4.1” (FIG. 1) of Example 1 was used as the HCV particle formation promoter. A lovastatin solution prepared by adding a culture medium to the HCV particle formation promoter to adjust each lovastatin concentration at the time of virus inoculation and at the time of culture to 20 μg/ml was used in the following. A system containing dimethylsulfoxide (DMSO) in place of the HCV particle formation promoter was used as a control.
A sample to measure an extracellular HCV infectivity titer was prepared in the same manner as in Example 2. A sample to measure an intracellular HCV infectivity titer was prepared by a freeze-thawing method. First, infected cells were washed with PBS and then detached by trypsin/EDTA treatment, followed by centrifugation to collect a cell pellet. The cell pellet was washed once with PBS, suspended in 0.5 ml of a culture medium, and freeze-thawed at −80° C. three times repeatedly, followed by centrifugation at 12,000 rpm for 5 minutes. […] Each sample was measured for its virus titer in the same manner as in Example 2.

Where two headings read alike, the source gives them in different places.

With `CC[C@H](C)C(=O)O[C@H]1C[C@H](O)C=C2C=C[C@H](C)[C@H](CC[C@@H](O)C[C@@H](O)CC(=O)O)[C@H]21` [Pravastatin, (1S,βR,δR,8aβ)-1,2,6,7,8,8a-hexahydro-β,δ,6β-trihydroxy-2β-methyl-8α-[(S)-2-methyl-1-oxobutoxy]-1β-naphthaleneheptanoate], the “Promotion ratio (HCV particle production-promoting effect)” value (shortened to “Promotion ratio”) was found to be 0.6 with HCV JFH1 strain [1] (5.0 μg/ml), 2.7 in the assay on HCV JFH1 strain [1] (20.0 μg/ml), 17.2 in the assay on HCV JFH1 strain [2] (80.0 μg/ml) and 24.7 in the assay on HCV JFH1 strain [2] (200.0 μg/ml).

Take `CC[C@H](C)C(=O)O[C@H]1C[C@@H](C)C=C2C=C[C@H](C)[C@H](CC[C@@H]3C[C@@H](O)CC(=O)O3)[C@H]21` [Lovastatin, (1S,3R,7S,8S,8aR)-8-[2-((2R,4R)-4-hydroxy-6-oxotetrahydro-2H-pyran-2-yl)ethyl]-3,7-dimethyl-1,2,3,7,8,8a-hexahydro-1-naphthyl]: the “Promotion ratio” value in the assay on HCV JFH1 strain [1] (1.25 μg/ml) was 0.8; in the assay on HCV JFH1 strain [1] (2.5 μg/ml), 3.5; in the assay on HCV JFH1 strain [1] (5.0 μg/ml) it was 6.1; in the assay on HCV JFH1 strain [1] (20.0 μg/ml), 11.1.

Take `CCC(C)(C)C(=O)O[C@H]1C[C@@H](C)C=C2C=C[C@H](C)[C@H](CC[C@@H]3C[C@@H](O)CC(=O)O3)[C@H]21` [Simvastatin, (1S,3R,7S,8S,8aR)-8-[2-[(2R,4R)-4-hydroxy-6-oxotetrahydropyran-2-yl]ethyl]-3,7-dimethyl-1,2,3,7,8,8a-hexahydro-1-naphthyl]: the “Promotion ratio” value is 8.5 with HCV JFH1 strain [1] (1.25 μg/ml), 14.8 with HCV JFH1 strain [1] (2.5 μg/ml), 19.5 in the assay with HCV JFH1 strain [1] (5.0 μg/ml) and 4.1 in the assay on HCV JFH1 strain [1] (20.0 μg/ml).

On to `CC(C)c1c(C(=O)Nc2ccccc2)c(-c2ccccc2)c(-c2ccc(F)cc2)n1CC[C@@H](O)C[C@@H](O)CC(=O)O` [Atorvastatin, calcium (3R,5R)-7-[2-(4-fluorophenyl)-5-isopropyl-3-phenyl-4-[(phenylamino)carbonyl]-1H-pyrrol-1-yl]-3,5-dihydroxyheptanoate], for which the “Promotion ratio” value was found to be 0.9 with HCV JFH1 strain [1] (1.25 μg/ml), 4.3 in the assay with HCV JFH1 strain [1] (2.5 μg/ml), 9.4 in the assay with HCV JFH1 strain [1] (5.0 μg/ml) and 9.7 with HCV JFH1 strain [1] (20.0 μg/ml).

Consider `CC(C)n1c(/C=C/[C@@H](O)C[C@@H](O)CC(=O)[O-])c(-c2ccc(F)cc2)c2ccccc21.[Na+]` [Fluvastatin, sodium (3R,5S,6E)-7-[3-(4-fluorophenyl)-1-(1-methylethyl)-1H-indol-2-yl]-3,5-dihydroxy-6-heptenoate], for which the “Promotion ratio” value is 9.2 with HCV JFH1 strain [1] (1.25 μg/ml), 14.3 in the assay with HCV JFH1 strain [1] (2.5 μg/ml), 15.2 in the assay with HCV JFH1 strain [1] (5.0 μg/ml) and 7.9 in the assay on HCV JFH1 strain [1] (20.0 μg/ml).

On to `CC[C@H](C)C(=O)O[C@H]1C[C@@H](C)C=C2C=C[C@H](C)[C@H](CC[C@@H]3C[C@@H](O)CC(=O)O3)[C@H]21` [B15.4.1], for which the “intracellular HCV RNA replication amount” value with HCV RNA was “not affected”. The HCV infectivity titer entry in the assay on HCV JFH1 strain [1] (Example 2, 5 to 20 μg/ml of lovastatin, during adsorption and 48 h culture, Huh7-it cells (FIG. 2)) is “high HCV infectivity titer was found in a lovastatin concentration-dependent manner”. For the same compound, the virus infectivity titer result in the assay with HCV JFH1 strain [1] (Example 4, 20 μg/ml lovastatin, added after HCV adsorption (with or without presence during adsorption), 46 h culture (FIG. 4)) was “high virus infectivity titer was found”. Further, in the assay on HCV protein (antigen), the “intracellular HCV protein (antigen) synthesis amount” value is “not affected”. Moreover, the “intracellular HCV particle-producing ability versus control” value in the assay on HCV JFH1 strain [3] is “substantially no difference”.

The record behind these values is patent publication US20150258189A1, “HEPATITIS C VIRUS PARTICLES FORMATION PROMOTER, AND METHOD OF PRODUCING HEPATITIS C VIRUS PARTICLES” (priority 2012, published 2015).
